Measured values published in US9623108B2, “Formulation for oral administration with beneficial effects on the cardiovascular system” (ROTTAPHARM S.p.A., priority 2006, dated 2017).

Key:
[1] = NOAEL, doses repeated daily in an animal; assay type: in vivo; conditions: equivalent of the animal NOAEL in humans
HMG-CoA-r = target: T1, HMG-CoA-r (Homo sapiens, UniProt P04035); conditions: competition with HMG-CoA at HMG-CoA-r; cited from earlier work
T1 sequence (P04035 1-888): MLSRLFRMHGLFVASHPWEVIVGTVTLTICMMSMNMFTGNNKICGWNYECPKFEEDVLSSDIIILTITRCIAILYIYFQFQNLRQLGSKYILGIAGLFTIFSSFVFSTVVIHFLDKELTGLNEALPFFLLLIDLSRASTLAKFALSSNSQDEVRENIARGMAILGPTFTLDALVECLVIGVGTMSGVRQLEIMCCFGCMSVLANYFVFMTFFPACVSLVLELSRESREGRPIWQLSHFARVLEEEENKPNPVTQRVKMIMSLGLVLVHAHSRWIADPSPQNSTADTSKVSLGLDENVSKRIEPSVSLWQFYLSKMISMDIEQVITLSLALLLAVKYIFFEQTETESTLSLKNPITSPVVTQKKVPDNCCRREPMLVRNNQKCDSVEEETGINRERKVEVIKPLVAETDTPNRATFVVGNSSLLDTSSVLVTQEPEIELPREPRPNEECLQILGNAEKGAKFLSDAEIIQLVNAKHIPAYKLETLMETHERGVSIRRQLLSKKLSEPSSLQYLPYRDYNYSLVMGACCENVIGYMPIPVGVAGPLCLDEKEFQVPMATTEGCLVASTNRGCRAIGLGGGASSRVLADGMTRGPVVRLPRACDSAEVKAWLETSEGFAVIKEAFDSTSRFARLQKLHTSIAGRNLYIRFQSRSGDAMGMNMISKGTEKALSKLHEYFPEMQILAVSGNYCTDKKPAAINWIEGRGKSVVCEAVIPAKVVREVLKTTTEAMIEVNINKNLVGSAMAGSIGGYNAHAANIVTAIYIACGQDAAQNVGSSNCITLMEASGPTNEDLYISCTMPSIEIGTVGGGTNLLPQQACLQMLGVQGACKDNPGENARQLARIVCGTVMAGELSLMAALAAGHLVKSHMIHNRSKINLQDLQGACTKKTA

[2] = tested on: patients who had hypercholesterolaemia and hypertriglyceridaemia; conditions: 500 mg berberine in a single dose once a day; cited from earlier work
[3] = tested on: rabbits rendered hypercholesterolaemic and hypertriglyceridaemic; experiment: Rabbits rendered hypercholesterolaemic and hypertriglyceridaemic with atherogenic feed, 3 months treatment, blood lipid analyses; assay type: in vivo, New Zealand White rabbits
Experimental: The action of the active principles, according to the composition of COMB, was tested and evaluated experimentally on rabbits rendered hypercholesterolaemic and hypertriglyceridaemic with a diet with added cholesterol, powdered egg yolk and lard. Note: all the daily doses used in the treatment groups, described in the experimental section, are about 4 times higher than those stated in the examples of formulation described in a later section. An exception is the group treated with berberine 100 mg/kg, for which the dose of active principle corresponds to about 13 times that contained in the examples of formulations intended for oral administration in humans. […] The difference in posology between animals and humans is perfectly normal in pharmacology, because it is well known that the pathologies induced experimentally in animals are always dramatically and unnaturally more severe than those that occur spontaneously in humans. New Zealand White rabbits of 6-8 weeks and with body weight of 1.8-2.0 kg. The following feeds, in pellets, were provided at a ration of 150 g of feed per day. Water was available ad libitum. ATER: Atherogenic feed, i.e. standard feed for guinea pigs and rabbits according to Sherman, in pellets (Laboratorio Dottori […].) with addition of 10% powdered egg yolk, 10% lard and 1% cholesterol according to Kong et al. [2004]. The substances under investigation were administered by stomach tube, once a day, suspended in 2 ml/kg of carboxymethylcellulose 0.2% (CMC). All the animals were acclimatized in the living quarters at 25±2° C. and relative humidity 55-65%. After 1 week, blood samples were taken in order to obtain the baseline data. The animals were then randomized to the following treatment groups of 10 rabbits each. AT: Controls with feed ATER and with daily administration of 2 ml/kg of CMC by stomach tube. Ber30: Feed AT, with daily administration of berberine 30 mg/kg in 2 ml/kg of CMC, by stomach tube. Ber100: Feed AT, with daily administration of berberine 100 mg/kg in 2 ml/kg of CMC, by stomach tube. Ass (reference association (combination) for lowering blood lipid level): Feed AT, with daily administration of Ass in 2 ml/kg of CMC, by stomach tube. COMB: Feed AT, with daily administration of Ass with addition of 30 mg/kg of berberine in 2 ml/kg of CMC, by stomach tube. The treatments were continued for 3 months. […] These analyses were carried out with suitably validated, conventional laboratory methods. A descriptive statistical analysis was performed using conventional methods of calculation.

[4] = tested on: hypercholesterolaemic patients; conditions: berberine 500 mg b.i.d.; cited from earlier work
[5] = berberine 30 mg/kg/d by stomach tube, not statistically significant
[6] = berberine 100 mg/kg/d by stomach tube, p<0.001

With `CC1=C(/C=C/C(C)=C/C=C/C(C)=C/C=C/C=C(C)/C=C/C=C(C)/C=C/C2=C(C)C(=O)[C@@H](O)CC2(C)C)C(C)(C)C[C@H](O)C1=O` [Ast, 3,3′-dihydroxy-β,β′-carotene-4,4′-dione] as the compound, how does the “NOAEL equivalent in humans” value [1] read?
Its value is “more than 80 g”.

For `CC[C@H](C)C(=O)O[C@H]1C[C@@H](C)C=C2C=C[C@H](C)[C@H](CC[C@@H]3C[C@@H](O)CC(=O)O3)[C@H]21` [Monacoline K], which “activity for the enzyme relative to the natural substrate HMG-CoA” value (HMG-CoA-r) is on record?
Its value is 2000 times.

Which results are given for `COc1ccc2cc3[n+](cc2c1OC)CCc1cc2c(cc1-3)OCO2` [berberine, 5,6-dihydro-9,10-dimethoxybenzo[g]-1,3-benzodioxolo[5,6-a]quinolizinium]?
hepatic transaminases [2]: improved; tolerability of the treatment [2]: well tolerated; increase in HDL ([3]; berberine 30 mg/kg/d): 0.48 mmol/L; reduction of the increase in LDL caused by AT [3, 5]: 13%; reduction of the increase in total cholesterol (CT) caused by AT [3, 5]: 15%; reduction of the increase in blood triglycerides (TG) caused by AT ([3]; berberine 30 mg/kg/d by stomach tube, p<0.01): 43%; increase in HDL ([3]; berberine 100 mg/kg/d): 0.53 mmol/L; reduction of the increase in LDL caused by AT [3, 6]: 89%; reduction of the increase in blood triglycerides (TG) caused by AT [3, 6]: 66%; reduction of the increase in total cholesterol (CT) caused by AT [3, 6]: 87%; hepatic transaminases [4]: decrease in hepatic transaminases
